The text below walks through data of US4719297A, “Acylphosphine compounds and their use as photoinitiators” (priority 1981, dated 1988).

SMILES strings stand for the structures.

Series [1] can be described thus: Hardening activity of UP resin A under UV light, temperature/time curve (Table 2). Conditions: 0.2% compound. The procedure: (§1) To measure the hardening activity, the temperature curve for the unsaturated polyester resin (UP resin) was recorded during exposure to UV light. […] To avoid heat losses during the exposure to UV light, the lid was embedded in rigid expanded polyurethane foam. The UV light source used comprised 5 fluorescent tubes (TLAK 40 W/05 from Philips) side by side, at a distance of 8.5 cm from the UP resin surface.
(§2) The hardening time HT25° C.-T.sbsb.max and the maximum hardening temperature Tmax achieved were obtained, as characteristic parameters for the hardening activity, from the recorded temperature/time curves. The hardening time is the interval in which the sample temperature increases from 25° C. to Tmax.
(§3) The Examples and Comparative Examples were carried out using the following unsaturated polyester resins:
Resin A was a 65% strength solution, in styrene, of an unsaturated polyester of maleic acid, o-phthalic acid, ethylene glycol and propylene 1,2-glycol in the molar ratio of 1:2:2.3:0.70, the solution being stabilized with 0.01% of hydroquinone.
(§4) The hardening activity of the novel compounds 1 to 16 (cf. Table 1) was compared with the properties of the following compounds: […]

Series [2] in a line: Shelf life of UP resin C containing a photoinitiator, stored at 60° C. (Table 3). Type of series: physicochemical. Conditions: 0.2% initiator, dark. On the procedure: (§5) To test the shelf life, 6.6 ml of each of the UP resins A, B and C (cf. Example 5) with an initiator content of 0.2% were introduced into brown sample bottles, and the closed bottles were stored at 60° C. At intervals of about 12 hours, the bottles were turned to determine whether gel particles had formed. As a measure of the shelf life, Table 3 gives the maximum storage time at which gel particles were still not observed.
(§6) In addition to the comparative compounds I, II and III, compound V below was also tested: V 2,4,6-trimethylbenzoyldiphenylphosphine oxide as described in U.S. Pat. No. 4,265,723.
(§7) The numbering scheme of the compounds in Table 3 is based on that of Table 1.

Series [3] can be described thus: Hardening activity of UP resin B under UV light, temperature/time curve (Table 2). Conditions: 0.2% compound. On the procedure: as §1, §2, §3
Resin B was a 67% strength solution, in styrene, of an unsaturated polyester of maleic acid, tetrahydrophthalic acid and diethylene glycol in the molar ratio of 1:0.5:1.5, the solution being stabilized with 0.01% of hydroquinone.
as §4

Series [4] is described as follows: Shelf life of UP resin B containing a photoinitiator, stored at 60° C. (Table 3). Conditions: 0.2% initiator, dark. In kind it is physicochemical. On the procedure: as §5, §6, §7
The nature of series [5]: Hardening activity of UP resin C under UV light, temperature/time curve (Table 2). Conditions: 0.2% compound. The procedure: as §1, §2, §3
Resin C was a 66% strength solution, in styrene, of an unsaturated polyester of maleic acid, o-phthalic acid and propylene 1,2-glycol in the molar ratio of 1:0.5:1.5, the solution being stabilized with 0.01% of hydroquinone.
as §4

A short description of series [6]: Shelf life of UP resin A containing a photoinitiator, stored at 60° C. (Table 3). Conditions: 0.2% initiator, dark. In kind it is physicochemical. On the procedure:
as §5, §6, §7

Series [7] can be described thus: Shelf life of resins containing the compounds, overall comparison. Conditions: Table 3, in words. Type of series: physicochemical. The procedure: as §5, §6
Series [8] can be described thus: Minimum exposure time for faultless reproduction of the 3% tonality on photopolymerizable printing plate (Table 7). Conditions: 2 parts photoinitiator; UV about 3,300 μW/cm^2. On the procedure:
60 parts by weight of a 1:1:1 copolyamide consisting of PA-6, PA-6.6 and PA-6.13, 30 parts by weight of ethylene glycol bis-(N-methylolacrylamide) ether, 10 parts by weight of benzenesulfonic acid N-(n-butyl)-amide, 150 parts by weight of methanol, 20 parts by weight of water, 0.02 part by weight of a chromium complex dye (CI No. 12,195), 0.3 part by weight of potassium N-nitrosocyclohexylhydroxylamine and 2 parts by weight of the photoinitiator given in Table 7 were dissolved at about 70° C. The photopolymerizable material was brought to a solids content of about 65% by distilling off part of the solvent and was then cast, at 60° C., on to a strip of steel sheet provided with an adhesive, and drying was effected in a drying oven for about 2 hours at 80° C. The resulting photopolymerizable printing plate contained a 0.5 mm thick layer with a solids content of about 95%.
Using a test negative which had, inter alia, 54 screen lines, per centimeter, of 3% tonality, the plate was exposed to a UV light intensity of about 3,300 μW/cm^2 on a flat-plate exposure unit equipped with superactinic fluorescent tubes. The unexposed parts of the plate which were protected from the UV light by the opaque image elements of the negative were then washed out in a spray washer for 5 minutes at 30° C. and under a spray pressure of 5 bar, using an ethanol/water mixture containing 80% of ethanol. The plate was thereafter dried for 6 minutes at 110° C. The minimum exposure time required for faultless reproduction of the 3% tonality was measured, and the results for various photoinitiators are summarized in Table 7.

Series [9] can be described thus: Photopolymerization of monomer emulsion, properties of resulting polymer dispersions (Table 5). On the procedure:
A monomer emulsion was prepared from 50 parts of methyl acrylate, 50 parts of ethyl acrylate, 1.3 parts of a 40% strength C15 -paraffin sulfonate, 1.3 parts of an adduct of isooctylphenol with 25 units of ethylene oxide (20% strength) and 210 parts of water in a conventional mixing unit.
This emulsion was introduced into a 1 l glass flask provided with an internal thermometer and a stirrer, and was freed from oxygen by twice evacuating the flask and gassing the emulsion with nitrogen. X parts of the photoinitiator in 6.7 parts of water were added, and the reaction vessel was then exposed for 60 minutes to light from a high pressure mercury vapor lamp of Type HQL/R 400 W from Osram, located 30 cm above the vessel. The beginning of polymerization was evident from an increase in the temperature. The amounts of photoinitiator employed and the properties of the resulting polymer dispersions are summerized in Table 5, photoinitiator 4 (cf. Table 1) being compared with photoinitiator VI (described in U.S. Pat. No. 4.257,859).

The mark [10] stands for this setting: 1.7 parts X employed, 60 min exposure.

Regarding `Cc1cc(C)c(C(=O)P(=O)(O)c2ccccc2)c(C)c1` [Compound 16], in series [1], the “hardening time HT 25°-Tmax” value is given as 5/15 and the “maximum hardening temperature Tmax” value amounted to 115 °C.

Regarding `Cc1cc(C)c(C(=O)P(=O)(OC(C)C)c2ccccc2)c(C)c1` (stereo not drawn) [II, isopropyl 2,4,6-trimethylbenzoylphenylphosphinate, reference compound], the Shelf life came to 120 h in series [2], 155 h in series [4] and 140 h in [6]. The entries for the “hardening time HT 25°-Tmax” value in [3], in [5] and in series [1] were 5/15, 6/08 and 6/45, respectively. In addition, the figures for the “maximum hardening temperature Tmax” value in [3], in [5] and in series [1] were 128 °C, 120 °C and 107 °C, respectively.

For `Cc1cc(C)c(C(=O)P(=O)(O)c2ccccc2)c(C)c1` [Compound 15], the “hardening time HT 25°-Tmax” value was 8/00 in [3], 7/30 in [5] and 7/15 in series [1]. Further, the “maximum hardening temperature Tmax” value is 119 °C in [3], 109 °C in series [5] and 113 °C in [1].

As for `Cc1cc(C)c(C(=O)P(=O)(O)c2ccccc2)c(C)c1` [Compound 9], the figures for the Shelf life in series [2], in series [4] and in series [6] were 180 h, 140 h and 180 h, respectively. Also, the “hardening time HT 25°-Tmax” value in series [3] is 4/45; in [5], 5/45; in series [1], 5/53. Further, the “maximum hardening temperature Tmax” value came out at 125 °C in series [3], 129 °C in [5] and 110 °C in [1]. Besides, the “shelf life of resins compared with compounds II, III and V” value in series [7] is reported as “substantially superior”. For the same molecule, the “shelf life of resins compared with resins containing I” value in series [7] is given as “not significantly different”.

Take `COC(OC)(C(=O)c1ccccc1)c1ccccc1` [III, benzil dimethyl ketal, reference compound]: the “hardening time HT 25°-Tmax” value in [3] is 9/45; in series [5], 8/30; in [1], 8/00. The entries for the “maximum hardening temperature Tmax” value in series [3], in series [5] and in series [1] were 119 °C, 122 °C and 114 °C, respectively. Also, the “Minimum exposure time required for reproducing the 3% tonality” value in series [8] was 165 s.

Regarding `Cc1cc(C)c(C(=O)P(=O)(O)c2ccccc2)c(C)c1` [Compound 13], the results for the “hardening time HT 25°-Tmax” value in series [3], in [5] and in series [1] were 5/30, 5/23 and 6/08, respectively. The “maximum hardening temperature Tmax” value in [3] was determined as 126 °C; in [5], 121 °C; in [1], 115 °C.

Regarding `Cc1cc(C)c(C(=O)P(=O)(O)c2ccccc2)c(C)c1` [Compound 11], the Shelf life in [2] worked out at 204 h; in [4], 155 h; in [6] it was 180 h. In addition, the “hardening time HT 25°-Tmax” value is on record as 4/30 in [3], 5/15 in [5] and 5/23 in series [1]. For the same molecule, the “maximum hardening temperature Tmax” value amounted to 124 °C in [3], 120 °C in series [5] and 118 °C in series [1]. Also, in series [7], the “shelf life of resins compared with compounds II, III and V” value is “substantially superior”. Moreover, the “shelf life of resins compared with resins containing I” value in series [7] is recorded as “not significantly different”.

Turning to `Cc1cc(C)c(C(=O)P(=O)(O)c2ccccc2)c(C)c1` [Compound 14], the Shelf life in series [2] came out at 204 h; in series [4], 155 h; in [6], 180 h. In addition, the “hardening time HT 25°-Tmax” value in series [3] is listed as 4/53; in [5], 5/38; in series [1], 5/30. In addition, the “maximum hardening temperature Tmax” value came to 118 °C in [3], 123 °C in series [5] and 122 °C in series [1]. For the same molecule, in series [8], the “Minimum exposure time required for reproducing the 3% tonality” value was found to be 110 s. Further, in [7], the “shelf life of resins compared with compounds II, III and V” value was “substantially superior”. Also, the “shelf life of resins compared with resins containing I” value in series [7] is on record as “not significantly different”.

`Cc1cc(C)c(C(=O)P(=O)(O)c2ccccc2)c(C)c1` [Compound 18]: in [7], the “shelf life of resins compared with compounds II, III and V” value is on record as “substantially superior”. For the same molecule, in series [6], the Shelf life was 270 h.

For the molecule `Cc1cc(C)c(C(=O)P(=O)(O)c2ccccc2)c(C)c1` [Compound 5], in [1], the “hardening time HT 25°-Tmax” value is on record as 5/38 and the “maximum hardening temperature Tmax” value turned out to be 118 °C.

On to `Cc1cc(C)c(C(=O)P(=O)(O)c2ccccc2)c(C)c1` [Compound 17], for which, in series [1], the “hardening time HT 25°-Tmax” value is 5/38 and the “maximum hardening temperature Tmax” value was found to be 120 °C. For the same molecule, the “shelf life of resins compared with compounds II, III and V” value in series [7] is “substantially superior”. The Shelf life in [6] stood at 270 h.

With `Cc1cc(C)c(C(=O)P(=O)(O)c2ccccc2)c(C)c1` [Compound 8, Calcium bis-(2,4,6-trimethylbenzoylphenylphosphinate)], the “hardening time HT 25°-Tmax” value is listed as 6/00 in series [3] and 5/53 in series [1]. In addition, the “maximum hardening temperature Tmax” value in series [3] worked out at 130 °C; in series [1] it was 114 °C.

With `C[N+]1(CC(O)(C(=O)c2ccccc2)c2ccccc2)CCCC1` (stereo not drawn) [VI], the polymerization outcome in [9] (0.04 parts X employed) is listed as “no polymerization”. In series [9] (setting [10]), the “Fikentscher K value” is 146.1; the “Residual monomers, ethyl acrylate” value was determined as 0.012%; the “Residual monomers, methyl acrylate” value came to 0.036%; the Solids content came to 30.8%. The “initiation of photopolymerization at very low starting concentrations” value in series [9] (very low starting concentrations, in words) is “no longer initiates polymerization”.

Take `Cc1cc(C)c(C(=O)P(=O)(O)c2ccccc2)c(C)c1` [Compound 6]: in series [1], the “hardening time HT 25°-Tmax” value is given as 5/53 and the “maximum hardening temperature Tmax” value was 115 °C.
